In patent US10722514B2 (FLX Bio, Inc., priority 2017, dated 2020):
Structures can show the parent of a compound that is named as a salt.

The compounds below were run against T1, recombinant full-length USP7 (Homo sapiens, UniProt Q93009) (assay: USP7-mediated ubiquitin-rhodamine cleavage assay). Conditions: recombinant full-length USP7 62 pM; ubiquitin-rhodamine 100 nM; 30-minute incubation with compound, 1 hour reaction at room temperature; read-out: Potency: USP7 IC50.
T1 construct: A 25 μl reaction volume containing recombinant full-length USP7 (62 pM)
T1 sequence (Q93009 whole entry): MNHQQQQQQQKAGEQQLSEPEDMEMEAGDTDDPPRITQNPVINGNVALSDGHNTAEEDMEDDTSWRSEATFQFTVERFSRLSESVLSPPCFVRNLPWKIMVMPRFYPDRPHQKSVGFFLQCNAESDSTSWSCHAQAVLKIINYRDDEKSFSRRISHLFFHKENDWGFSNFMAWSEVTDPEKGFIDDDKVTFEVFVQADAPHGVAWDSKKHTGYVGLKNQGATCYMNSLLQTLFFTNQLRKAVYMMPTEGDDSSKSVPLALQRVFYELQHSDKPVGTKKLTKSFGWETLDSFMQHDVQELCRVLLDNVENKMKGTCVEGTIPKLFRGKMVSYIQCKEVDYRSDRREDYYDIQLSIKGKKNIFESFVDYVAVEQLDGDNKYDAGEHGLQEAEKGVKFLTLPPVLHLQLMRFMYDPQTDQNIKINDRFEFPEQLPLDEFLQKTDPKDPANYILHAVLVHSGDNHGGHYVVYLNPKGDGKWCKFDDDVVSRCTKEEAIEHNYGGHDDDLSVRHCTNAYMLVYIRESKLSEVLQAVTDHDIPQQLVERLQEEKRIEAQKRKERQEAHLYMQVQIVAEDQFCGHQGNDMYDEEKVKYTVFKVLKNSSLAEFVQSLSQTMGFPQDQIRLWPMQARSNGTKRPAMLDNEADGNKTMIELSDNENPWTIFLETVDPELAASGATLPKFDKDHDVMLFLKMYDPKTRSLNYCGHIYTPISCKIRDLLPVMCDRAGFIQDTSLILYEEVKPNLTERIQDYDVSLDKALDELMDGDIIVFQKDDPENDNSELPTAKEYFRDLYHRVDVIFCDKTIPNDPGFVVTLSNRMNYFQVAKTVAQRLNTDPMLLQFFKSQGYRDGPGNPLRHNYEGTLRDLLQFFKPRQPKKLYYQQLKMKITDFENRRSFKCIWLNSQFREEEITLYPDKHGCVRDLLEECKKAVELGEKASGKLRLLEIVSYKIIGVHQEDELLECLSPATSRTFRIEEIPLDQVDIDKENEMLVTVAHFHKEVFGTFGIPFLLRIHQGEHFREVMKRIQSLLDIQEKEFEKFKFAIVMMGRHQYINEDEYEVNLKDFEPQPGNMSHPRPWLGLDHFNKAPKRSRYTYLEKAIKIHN
Type: biochemical
Outline: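 USP7 (62 pM) in 20 mM HEPES pH 7.3, 150 mM NaCl, 1 mM TCEP, 125 μg/ml BSA was preincubated with compound (1% DMSO) for 30 min at room temperature. Ubiquitin-rhodamine (100 nM final) was then added for 1 hour, the reaction stopped with acetic acid, and fluorescence read; IC50 from 4-parameter fit.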

Row | IC50 [µM] | Structure (SMILES)
1 | < 1 | Cc1cc(Cl)cc(-c2ccnc3cc(Cn4c(=O)ccn(CC(F)(F)F)c4=O)sc23)c1OC1(C)CNC1 [Example 279, 3-((7-(5-Chloro-3-methyl-2-((3-methylazetidin-3-yl)oxy)phenyl)thieno[3,2-b]pyridin-2-yl)methyl)-1-(2,2,2-trifluoroethyl)pyrimidine-2,4(1H,3H)-dione]
2 | < 1 | Cc1cc(Cl)cc(-c2ccnc3cc(CN4C(=O)CCN(C)C4=O)sc23)c1O[C@@H]1CNC[C@@H]1F [Example 150, 3-((7-(5-Chloro-2-(((3R,4S)-4-fluoropyrrolidin-3-yl)oxy)-3-methylphenyl)thieno[3,2-b]pyridin-2-yl)methyl)-1-methyldihydropyrimidine-2,4(1H,3H)-dione]
3 | < 1 | Cc1cc(Cl)cc(-c2ccnc3cc(CN4C(=O)CC(C)(C)CC4=O)sc23)c1OC1CCNCC1 [Example 258, 1-((7-(5-Chloro-3-methyl-2-(piperidin-4-yloxy)phenyl)thieno[3,2-b]pyridin-2-yl)methyl)-4,4-dimethylpiperidine-2,6-dione]
4 | 10 to 30 | Cc1cc(Cl)cc(-c2ccnc3cc(CO)sc23)c1O[C@@H]1CN[C@@H](C(C)(C)O)C1 [Example 71, 2-((2R,4S)-4-(4-Chloro-2-(2-(hydroxymethyl)thieno[3,2-b]pyridin-7-yl)-6-methylphenoxy)pyrrolidin-2-yl)propan-2-ol]
5 | 1 to 10 | Cc1cc(Cl)cc(-c2ccnc3cc(CO)sc23)c1OCC1(C)CNC1 [Example 17, (7-(5-Chloro-3-methyl-2-((3-methylazetidin-3-yl)methoxy)phenyl)thieno[3,2-b]pyridin-2-yl)methanol]
6 | < 1 | Cc1cc(Cl)cc(-c2ncnc3cc(CN4C(=O)CCC4=O)sc23)c1O[C@H]1CC[C@H](C)NC1 [Example 338, 1-[[4-[5-chloro-3-methyl-2-[[(3S,6S)-6-methyl-3-piperidyl]oxy]phenyl]thieno[3,2-d]pyrimidin-6-yl]methyl]pyrrolidine-2,5-dione dihydrochloride]
7 | < 1 | Cc1cc(Cl)cc(-c2ccnc3cc(CN4C(=O)C5C(C4=O)C5(C)C)sc23)c1O[C@@H]1C[C@@H]2C[C@H]1N(C)C2 (stereo partly drawn) [Example 333, 3-[[7-[5-chloro-3-methyl-2-[[(1S,4R,5R)-3-methyl-3-azabicyclo[2.2.1]heptan-5-yl]oxy]phenyl]thieno[3,2-b]pyridin-2-yl]methyl]-6,6-dimethyl-3-azabicyclo[3.1.0]hexane-2,4-dione]
8 | < 1 | Cc1cc(Cl)cc(-c2ccnc3cc(CN4C(=O)C5C(C4=O)C5(C)C)sc23)c1O[C@H]1CCCN[C@@H]1C (stereo partly drawn) [Example 364, 3-[[7-[5-chloro-3-methyl-2-[[(2R,3S)-2-methyl-3-piperidyl]oxy]phenyl]thieno[3,2-b]pyridin-2-yl]methyl]-6,6-dimethyl-3-azabicyclo[3.1.0]hexane-2,4-dione; 2,2,2-trifluoroacetic acid]
9 | 1 to 10 | Cc1cc(Cl)cc(-c2ccnc3cc(Cn4cnc5ccccc5c4=O)sc23)c1O[C@H]1CCCNC1 [Example 385, 3-[[7-[5-chloro-3-methyl-2-[[(3S)-3-piperidyl]oxy]phenyl]thieno[3,2-b]pyridin-2-yl]methyl]quinazolin-4-one; 2,2,2-trifluoroacetic acid]
10 | < 1 | Cc1cc(Cl)cc(-c2ccnc3cc(CN4C(=O)CCC4=O)sc23)c1O[C@@H]1CNC[C@H]1F [Example 104, 1-((7-(5-Chloro-2-(((3R,4R)-4-fluoropyrrolidin-3-yl)oxy)-3-methylphenyl)thieno[3,2-b]pyridin-2-yl)methyl)pyrrolidine-2,5-dione]
11 | < 1 | Cn1nc2c(c1C1Cc3cc(Cl)cc(-c4ccnc5cc(CN6C(=O)C7C(C6=O)C7(C)C)sc45)c3O1)CNCC2 [Example 387, 3-[[7-[(2R)-5-chloro-2-(2-methyl-4,5,6,7-tetrahydropyraozlo[4,3-c]pyridin-3-yl)-2,3-dihydrobenzofuran-7-yl]thieno[3,2-b]pyridin-2-yl]methyl]-6,6-dimethyl-3-azabicyclo[3.1.0]hexane-2,4-dione dihydrochloride]
12 | < 1 | Cc1cc(Cl)cc(-c2ccnc3cc([C@H](C)N4C(=O)C5CC5C4=O)sc23)c1O[C@H]1CCCNC1 (stereo partly drawn) [Example 288, 3-[(1S)-1-[7-[5-chloro-3-methyl-2-[[(3S)-3-piperidyl]oxy]phenyl]thieno[3,2-b]pyridin-2-yl]ethyl]-3-azabicyclo[3.1.0]hexane-2,4-dione; 2,2,2-trifluoroacetic acid]
13 | < 1 | CCC1(C)CC(=O)N(Cc2cc3ncnc(-c4cc(Cl)cc(C)c4O[C@@H]4CNC[C@@H]4F)c3s2)C1=O (stereo partly drawn) [Example 381, 1-[[4-[5-chloro-2-[(3R,4S)-4-fluoropyrrolidin-3-yl]oxy-3-methyl-phenyl]thieno[3,2-d]pyrimidin-6-yl]methyl]-3-ethyl-3-methyl-pyrrolidine-2,5-dione; 2,2,2-trifluoroacetic acid]
14 | < 1 | Cc1cc(C#N)cc(-c2ccnc3ccsc23)c1OCC1(C#N)CNC1 [Example 9, 3-((4-Cyano-2-methyl-6-(thieno[3,2-b]pyridin-7-yl)phenoxy)methyl)azetidine-3-carbonitrile]
15 | < 1 | Cc1cc(Cl)cc(-c2ccnc3cc(CN4C(=O)C5C(C4=O)C5(C)C)sc23)c1O[C@@H]1CNC[C@@H]1C(F)F (stereo partly drawn) [Example 389, 3-[[7-[5-chloro-2-[(3S,4S)-4-(difluoromethyl)pyrrolidin-3-yl]oxy-3-methyl-phenyl]thieno[3,2-b]pyridin-2-yl]methyl]-6,6-dimethyl-3-azabicyclo[3.1.0]hexane-2,4-dione dihydrochloride]
16 | < 1 | Cc1cc(Cl)cc(-c2ccnc3cc(Cn4c(=O)ccn(C)c4=O)sc23)c1OC1CNCC(C)(C)C1 (centres unmarked) [Example 6, 3-((7-(5-Chloro-2-((5,5-dimethylpiperidin-3-yl)oxy)-3-methylphenyl)thieno[3,2-b]pyridin-2-yl)methyl)-1-methylpyrimidine-2,4(1H,3H)-dione]

Row | Structure (SMILES) | IC50 [µM]
17 | Cc1cc(Cl)cc(-c2ccnc3cc(Cn4c(=O)ccn(C)c4=O)sc23)c1O[C@H]1C[C@H](N)C1 [Example 7, 3-((7-(2-((1r,3r)-3-Aminocyclobutoxy)-5-chloro-3-methylphenyl)thieno[3,2-b]pyridin-2-yl)methyl)-1-methylpyrimidine-2,4(1H,3H)-dione] | < 1

Same assay, conditions: recombinant full-length USP7 62 pM; ubiquitin-rhodamine 100 nM; 30-minute pre-incubation, 1 hour reaction at room temperature; read-out: Potency (USP7 IC50)

Row | IC50 [µM] | Structure (SMILES)
18 | < 1 | Cc1cc(Cl)cc(-c2ccnc3cc(Cn4c(=O)ccn(CC(F)(F)F)c4=O)sc23)c1O[C@@H]1CNC[C@@H]1C [Example 625, 3-[[7-[5-chloro-3-methyl-2-[(3S,4S)-4-methylpyrrolidin-3-yl]oxy-phenyl]thieno[3,2-b]pyridin-2-yl]methyl]-1-(2,2,2-trifluoroethyl)pyrimidine-2,4-dione]
19 | < 1 | Cc1cc(Cl)cc(-c2ccnc3cc(Cn4c(=O)c(C(F)(F)F)cn(C)c4=O)sc23)c1O[C@H]1CCCNC1 [Example 581, 3-[[7-[5-chloro-3-methyl-2-[[(3S)-3-piperidyl]oxy]phenyl]thieno[3,2-b]pyridin-2-yl]methyl]-1-methyl-5-(trifluoromethyl)pyrimidine-2,4-dione; 2,2,2-trifluoroacetic acid]
20 | < 1 | Cc1cc(Cl)cc(-c2ccnc3cc(CN4C(=O)CCC4=O)sc23)c1O[C@H]1CC[C@@H](C)NC1 [Example 416, 1-[[7-[5-chloro-3-methyl-2-[[(3S,6R)-6-methyl-3-piperidyl]oxy]phenyl]thieno[3,2-b]pyridin-2-yl]methyl]pyrrolidine-2,5-dione]
21 | < 1 | Cc1cc(Cl)cc(-c2ccnc3cc(CN4C(=O)CCC4=O)sc23)c1O[C@H]1CCCN(CC(=O)O)C1 [Example 579, 2-[(3S)-3-[4-chloro-2-[2-[(2,5-dioxopyrrolidin-1-yl)methyl]thieno[3,2-b]pyridin-7-yl]-6-methyl-phenoxy]-1-piperidyl]acetic acid]
22 | < 1 | Cc1cc(Cl)cc(-c2ccnc3cc(Cn4c(=O)ccn(CC(F)(F)F)c4=O)sc23)c1O[C@H]1CCNC[C@@H]1F [Example 559, 3-[[7-[5-chloro-2-[[(3S,4S)-3-fluoro-4-piperidyl]oxy]-3-methyl-phenyl]thieno[3,2-b]pyridin-2-yl]methyl]-1-(2,2,2-trifluoroethyl)pyrimidine-2,4-dione]
23 | < 1 | Cc1cc([N+](=O)[O-])cc(-c2ccnc3cc(Cn4c(=O)ccn(C)c4=O)sc23)c1O[C@H]1CCCNC1 [Example 573, 1-methyl-3-[[7-[3-methyl-5-nitro-2-[[(3S)-3-piperidyl]oxy]phenyl]thieno[3,2-b]pyridin-2-yl]methyl]pyrimidine-2,4-dione; 2,2,2-trifluoroacetic acid]
24 | < 1 | Cc1cc(Cl)cc(-c2ccnc3cc(Cn4c(=O)ccn(C)c4=O)sc23)c1OC1CCNC(C)(C)C1 (centres unmarked) [Example 572, 3-[[7-[5-chloro-2-[(2,2-dimethyl-4-piperidyl)oxy]-3-methyl-phenyl]thieno[3,2-b]pyridin-2-yl]methyl]-1-methyl-pyrimidine-2,4-dione; 2,2,2-trifluoroacetic acid]
25 | < 1 | O=C1CCC(=O)N1Cc1cc2nccc(-c3cc(Cl)cc(C(F)F)c3O[C@H]3CCCNC3)c2s1 [Example 432, 1-[[7-[5-chloro-3-(difluoromethyl)-2-[[(3S)-3-piperidyl]oxy]phenyl]thieno[3,2-b]pyridin-2-yl]methyl]pyrrolidine-2,5-dione dihydrochloride]

Row | Structure (SMILES) | IC50 [µM]
26 | Cc1cc(Cl)cc(-c2ccnc3cc(Cn4c(=O)ccn(C)c4=O)sc23)c1O[C@@H]1CC[C@@H](N)C1 [Example 426, 3-[[7-[2-[(1R,3R)-3-aminocyclopentoxy]-5-chloro-3-methyl-phenyl]thieno[3,2-b]pyridin-2-yl]methyl]-1-methyl-pyrimidine-2,4-dione; 2,2,2-trifluoroacetic acid] | < 1
